Results reported in patent publication US11365192B2, “Pyridine compound substituted with azole” (TAISHO PHARMACEUTICAL CO., LTD., priority 2017, dated 2022).

What was measured:
human CYP4F2 = human CYP4F2 (Homo sapiens (Human), UniProt P78329); assay: Inhibition test against 20-HETE producing enzyme CYP4F2 (luciferine derivative, luminescence); type: biochemical; details: E. coli membrane fraction expressing human CYP4F2, 2.5 μM luciferine derivative, room temperature 60 minutes
Experimental: (§1) (1) Inhibition Test for Each Compound of the Present Invention Against 20-HETE Producing Enzymes (CYP4F2 and CYP4A11)
(§2) In the CYP4F2 inhibition test, the reaction solution containing each compound [final concentration of 50 mM, KPO4 (pH 7.4), 2.5 μM luciferine derivative, and 1 mM NADPH] was added to an Escherichia coli membrane fraction (100 μg/mL protein) in which human CYP4F2 had been expressed. In the CYP4A11 inhibition test, the reaction solution containing each compound [final concentration of 100 mM, Tris-HCl (pH 7.5), 60 μM luciferine derivative, 1.3 mM NADP^+, 3.3 mM Glucose 6-Phosphate, 3.3 mM MgCl2, and 0.4 U/mL Glucose 6-Phosphate dehydrogenase] was added to an Escherichia coli membrane fraction (100 μg/mL protein) in which human CYP4A11 had been expressed. Following this, the membrane fraction was left to stand at room temperature for 60 minutes to perform an enzymatic reaction. After the reaction, a luciferine detection reagent was added, and the luminescence value was measured using a plate reader. By using that value, the percent inhibition of 20-HETE producing enzyme (%) was calculated according to the equation described below, and the 50% inhibitory concentration (IC50 value) for each compound was calculated. Percent inhibition of 20-HETE producing enzyme (%)=[1−(A−B)/(C−B)]*100
(§3) A: Luminescence value with addition of compound
(§4) B: Luminescence value without addition of compound and enzyme

human CYP4A11 = human CYP4A11 (Homo sapiens (Human), UniProt Q02928); assay: Inhibition test against 20-HETE producing enzyme CYP4A11 (luciferine derivative, luminescence); type: biochemical; details: E. coli membrane fraction expressing human CYP4A11, 60 μM luciferine derivative, room temperature 60 minutes
Experimental: as §1, §2, §3, §4

human CYP4F2, sequence (P78329 5-520): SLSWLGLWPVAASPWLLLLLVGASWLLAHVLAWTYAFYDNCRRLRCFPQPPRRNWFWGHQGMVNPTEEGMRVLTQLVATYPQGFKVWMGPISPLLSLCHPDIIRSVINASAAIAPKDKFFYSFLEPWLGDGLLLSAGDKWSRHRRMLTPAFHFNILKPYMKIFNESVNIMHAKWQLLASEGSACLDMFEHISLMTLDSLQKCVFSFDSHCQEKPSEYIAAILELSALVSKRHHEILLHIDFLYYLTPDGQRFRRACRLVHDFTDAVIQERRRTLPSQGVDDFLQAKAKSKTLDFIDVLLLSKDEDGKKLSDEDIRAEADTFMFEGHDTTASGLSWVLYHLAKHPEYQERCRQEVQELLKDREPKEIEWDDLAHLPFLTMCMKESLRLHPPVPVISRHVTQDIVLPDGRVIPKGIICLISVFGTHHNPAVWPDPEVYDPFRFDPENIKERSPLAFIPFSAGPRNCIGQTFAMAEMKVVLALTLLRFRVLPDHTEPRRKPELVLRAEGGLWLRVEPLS
human CYP4A11, sequence (Q02928 5-519): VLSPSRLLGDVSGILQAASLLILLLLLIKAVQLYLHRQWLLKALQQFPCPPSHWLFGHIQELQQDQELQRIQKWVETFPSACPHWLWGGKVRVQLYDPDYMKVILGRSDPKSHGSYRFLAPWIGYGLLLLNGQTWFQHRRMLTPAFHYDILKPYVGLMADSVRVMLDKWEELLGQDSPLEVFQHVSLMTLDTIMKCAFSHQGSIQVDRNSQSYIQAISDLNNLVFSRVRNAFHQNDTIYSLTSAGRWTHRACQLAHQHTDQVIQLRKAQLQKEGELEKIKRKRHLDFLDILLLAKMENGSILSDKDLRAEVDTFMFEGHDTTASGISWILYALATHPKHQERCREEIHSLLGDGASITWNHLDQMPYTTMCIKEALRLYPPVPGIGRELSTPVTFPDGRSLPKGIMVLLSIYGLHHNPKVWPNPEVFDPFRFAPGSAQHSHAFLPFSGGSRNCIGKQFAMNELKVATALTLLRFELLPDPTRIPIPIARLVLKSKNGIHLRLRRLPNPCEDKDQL

SMILES | IC50 (human CYP4F2) [nM] | IC50 (human CYP4A11) [nM]
O=C(O)C1(CCCCCCCOc2ccc(-c3ccn[nH]3)nc2)CCCC1 [Example 1-45] | 19 | 46
O=C(O)C1(CCCCCCOc2ccc(-c3ccn[nH]3)nc2)CCCC1 [Example 1-46, 1-[6-[[6-(1H-Pyrazol-5-yl)-3-pyridinyl]oxy]hexyl]-1-cyclopentanecarboxylic Acid] | 370 | 66
O=C(O)CCCCCOc1ccc(-c2ccn[nH]2)nc1 [Example 1-47, 6-[[6-(1H-Pyrazol-5-yl)-3-pyridinyl]oxy]hexanoic Acid] | 14000 | 68
O=C(O)CCCCCCCOc1ccc(-c2ccn[nH]2)nc1 [Example 1-48] | 2000 | 44
O=C(O)C1CCC(COc2ccc(-c3ccn[nH]3)nc2)CC1 (stereo not shown) [Example 1-49] | 24000 | 140
O=C(O)[C@H]1CC[C@@H](COc2ccc(-c3ccn[nH]3)nc2)CC1 [Example 1-50] | 23000 | 170
O=C(O)CCCCCCCCOc1ccc(-c2ccn[nH]2)nc1 [Example 1-51] | 200 | 54
O=C(O)CCCCCCCCCOc1ccc(-c2ccn[nH]2)nc1 [Example 1-52] | 41 | 44
O=C(O)C1CCCC(COc2ccc(-c3ccn[nH]3)nc2)C1 (stereo not shown) [Example 1-54] | 3400 | 57
O=C(O)C12CCCC(CCCOc3ccc(-c4ccn[nH]4)nc3)(C1)C2 [Example 1-55] | 3700 | 30
O=C(O)Cn1ccc(-c2cccc(COc3ccc(-c4ccn[nH]4)nc3)c2)cc1=O [Example 1-58] | 650 | 86
CC(C)(CCCCOc1ccc(-c2ccn[nH]2)nc1)C(=O)O [Example 1-59] | 17000 | 42
CC(C)(CCCOc1ccc(-c2ccn[nH]2)nc1)CC(=O)O [Example 1-60] | 31000 | 38
CC(C)(CCCCCCOc1ccc(-c2ccn[nH]2)nc1)C(=O)O [Example 1-61, 2,2-Dimethyl-8-[[6-(1H-pyrazol-5-yl)-3-pyridinyl]oxy]octanoic Acid] | 1900 | 26
CC(C)(CCCCCCCOc1ccc(-c2ccn[nH]2)nc1)C(=O)O [Example 1-62] | 96 | 23
CC(C)(CCCCCCCCOc1ccc(-c2ccn[nH]2)nc1)C(=O)O [Example 1-63] | 8.9 | 36
CCC(CC)(CCCCOc1ccc(-c2ccn[nH]2)nc1)C(=O)O [Example 1-64, 2,2-Diethyl-6-[[6-(1H-pyrazol-5-yl)-3-pyridinyl]oxy]hexanoic Acid] | 7500 | 28
COc1ccc(COc2ccc(-c3ccn[nH]3)nc2)cc1C(=O)O [Example 1-65, 2-Methoxy-5-[[6-(1H-pyrazol-5-yl)-3-pyridinyl]oxymethyl]benzoic Acid] | 24000 | 1200
CC(C)(Oc1cccc(COc2ccc(-c3ccn[nH]3)nc2)n1)C(=O)O [Example 1-66] | > 50000 | 330
CC(C)(OCCOCCCCOc1ccc(-c2ccn[nH]2)nc1)C(=O)O [Example 1-67] | 10000 | 120
O=C(O)C1CCc2cc(COc3ccc(-c4ccn[nH]4)nc3)ccc2O1 (stereo not shown) [Example 1-69] | 3000 | 75

More lines, now with the values ahead:

IC50 (human CYP4F2) [nM] | IC50 (human CYP4A11) [nM] | SMILES
24000 | 23 | O=C(O)[C@]12CC3C[C@H](C1)[C@H](COc1ccc(-c4ccn[nH]4)nc1)[C@@H](C3)C2 [Example 2-1, trans-4-[[6-(1H-Pyrazol-5-yl)-3-pyridinyl]oxymethyl]-1-adamantanecarboxylic Acid]
> 50000 | 130 | O=C(O)[C@]12CC3C[C@H](C1)[C@@H](COc1ccc(-c4ccn[nH]4)nc1)[C@@H](C3)C2 [Example 2-2, cis-4-[[6-(1H-Pyrazol-5-yl)-3-pyridinyl]oxymethyl]-1-adamantanecarboxylic Acid]
75 | 99 | O=C(O)C1(OCCCCCCCOc2ccc(-c3ccn[nH]3)nc2)CCCC1 [Example 2-3]
1800 | 200 | O=C(O)C1(OCCOCCCCOc2ccc(-c3ccn[nH]3)nc2)CCCC1 [Example 2-4]
8600 | 15 | O=C(O)CCc1ccccc1CCOc1ccc(-c2ccn[nH]2)nc1 [Example 2-5, 3-[2-[2-[[6-(1H-Pyrazol-5-yl)-3-pyridinyl]oxy]ethyl]phenyl]propanoic Acid]
4400 | 35 | O=C(O)CCC12CCC(COc3ccc(-c4ccn[nH]4)nc3)(CC1)CC2 [Example 2-7]
440 | 120 | O=C(CCCC1(C(=O)O)CCCC1)N1CCC[C@@H](COc2ccc(-c3ccn[nH]3)nc2)C1 [Example 3-2]
2300 | 390 | O=C(CCC1(C(=O)O)CCCC1)N1CCC(CCOc2ccc(-c3ccn[nH]3)nc2)CC1 [Example 3-3]
260 | 1800 | O=C(CCC1(C(=O)O)CCCC1)N1CCCC(CCOc2ccc(-c3ccn[nH]3)nc2)C1 (stereo not shown) [Example 3-4]
3000 | 2200 | CC(=O)N1CCC(CCCCCCOc2ccc(-c3ccn[nH]3)nc2)(C(=O)O)CC1 [Example 3-5]
2700 | 810 | CC(=O)N1CCC(CCCCCCOc2ccc(-c3ccn[nH]3)nc2)(C(=O)O)C1 (stereo not shown) [Example 3-6]
5700 | 1600 | O=C(O)C1(CCCCCCOc2ccc(-c3ccn[nH]3)nc2)CCS(=O)(=O)CC1 [Example 3-7]
250 | 1200 | CC(=O)N1CCC(CCCCCCCOc2ccc(-c3ccn[nH]3)nc2)(C(=O)O)CC1 [Example 3-8]
430 | 240 | O=C(O)C1(C(=O)NCCCCCCOc2ccc(-c3ccn[nH]3)nc2)CCCC1 [Example 3-9]
250 | 92 | CN(CCCCCCOc1ccc(-c2ccn[nH]2)nc1)C(=O)C1(C(=O)O)CCCC1 [Example 3-10]
290 | 55 | O=S(=O)(CCO)c1cccc(COc2ccc(-c3ccn[nH]3)nc2)c1 [Example 3-11]

IC50 (human CYP4F2) [nM] | IC50 (human CYP4A11) [nM] | SMILES
830 | 22 | O=C(O)CCCc1cccc(CCOc2ccc(-c3ccn[nH]3)nc2)c1 [Example 4-1, 4-[3-[2-[[6-(1H-Pyrazol-5-yl)-3-pyridinyl]oxy]ethyl]phenyl]butanoic Acid]
160 | 250 | O=C(O)CCCc1ccc(CCOc2ccc(-c3ccn[nH]3)nc2)cc1 [Example 4-2]
1700 | 73 | O=C(O)c1ccc2c(c1)C(CCOc1ccc(-c3ccn[nH]3)nc1)CCC2 (stereo not shown) [Example 5-2]
7.9 | 770 | CC(=O)N1CCC(CCCCCCCCOc2ccc(-c3ccn[nH]3)nc2)(C(=O)O)CC1 [Example 6-1, 1-Acetyl-4-[8-[[6-(1H-pyrazol-5-yl)-3-pyridinyl]oxy]octyl]-4-piperidinecarboxylic Acid]
48000 | 34 | CC(C)(CCOc1ccc(-c2ccn[nH]2)nc1)CCC(=O)O [Example 7-1, 4,4-Dimethyl-6-[[6-(1H-pyrazol-5-yl)-3-pyridinyl]oxy]hexanoic Acid]
790 | 20 | O=C(O)[C@H]1CC[C@@H](c2cccc(COc3ccc(-c4ccn[nH]4)nc3)c2)CC1 [Example 8-1, cis-4-[3-[[6-(1H-Pyrazol-5-yl)-3-pyridinyl]oxymethyl]phenyl]-1-cyclohexanecarboxylic Acid]
6500 | 19 | O=C(O)[C@H]1CC[C@H](c2cccc(COc3ccc(-c4ccn[nH]4)nc3)c2)CC1 [Example 8-2, trans-4-[3-[[6-(1H-Pyrazol-5-yl)-3-pyridinyl]oxymethyl]phenyl]-1-cyclohexanecarboxylic Acid]
860 | 28 | O=C(O)C1CCCC(c2cccc(COc3ccc(-c4ccn[nH]4)nc3)c2)C1 (stereo not shown) [Example 8-3]
4300 | 250 | O=C(O)c1ccccc1-c1cccc(COc2ccc(-c3ccn[nH]3)nc2)c1 [Example 8-4]
2300 | 560 | CC(C)(C(=O)O)c1cccc(S(=O)(=O)CCCCOc2ccc(-c3ccn[nH]3)nc2)c1 [Example 8-5]
53 | 2500 | CC(C)(CCN1CCc2ccc(COc3ccc(-c4ccn[nH]4)nc3)cc2C1=O)C(=O)O [Example 8-6]
280 | 440 | O=C(O)CCc1ccc(CCCOc2ccc(-c3ccn[nH]3)nc2)cc1 [Example 8-7]
1100 | 260 | O=C(O)Cc1ccc(CCCOc2ccc(-c3ccn[nH]3)nc2)cc1 [Example 8-8]
6200 | 29 | O=C(O)COc1ccc(COc2ccc(-c3ccn[nH]3)nc2)cc1 [Example 8-9]
1300 | 35 | O=C(O)c1ccnc(-c2cccc(COc3ccc(-c4ccn[nH]4)nc3)c2)c1 [Example 8-10]
120 | 14 | O=C(O)c1cc(-c2cccc(COc3ccc(-c4ccn[nH]4)nc3)c2)ccn1 [Example 8-11]
